Measurements published in patent US7115655B2, “Pyranocoumarin derivatives” (Elcom Biotechnology, Co. Ltd., priority 2002, dated 2006).
Where two headings read alike, the source gives them in different places.

What was measured:
[1] = molecular target: T1, AChE (Electric eel Type V-S, Sigma) (Electrophorus electricus, UniProt O42275); test: biochemical; format: biochemical
T1 construct: purchased Sigma Type V-S
Description: AChE inhibitory activity of the methanolic extract and CH2Cl2 fraction of Angelica gigas of the above Example 1 was measured by the method of Ellman et al. (Ellman, et al. (1961) A new and rapid colorimetric determination of acetylcholinesterase activity, Biochem. Pharmacol. 7: 88–95).
(§1) To a test tube containing a chromogen (5,5-dithiobis-2-nitrobenzoic acid) and a sample was added AChE homogenated with phosphate buffered saline (Electric eel Type V-S, Sigma), and a reaction was performed at 37° C. for 5 minutes, and thereto was added a substrate for the enzyme, […], and a reaction was further performed at 37° C. for 3 minutes. Neostigmine bromide was added thereto to terminate the reaction, and then, the absorbance was measured at 412 nm to obtain AChE inhibition (%). The above procedure was repeated with no AChE as a blank, or with no sample as a control.
AChE inhibitory activity of decursin of the above Example 2 and Compound 3 of the above Example 3 was measured according to the method in Experiment 1.
as §1, with “minutes. The above procedure was repeated with no AChE as a blank or with no sample as a control.” for “minutes.”, “obtain IC50 of” for “obtain”, “inhibition.” for “inhibition (%). The above procedure was repeated with no AChE as a blank, or with no sample as a control.”

[2] = system: mice with scopolamine-induced amnesia; test: Passive avoidance test in mice with scopolamine-induced amnesia; format: in vivo, Male ICR mice; details: for cognition-enhancing activity in passive avoidance test, in words: mice with scopolamine-induced amnesia
Excerpt: Male ICR mice weighing 25 to 30 g that had been bred with sufficient water and feed in the Experimental Animal Breeding Center of Seoul National University were supplied and adapted to the laboratory environment for 1 week to be used in this experiment.
An avoidance box (40×20×20 cm) equipped with 3 mm stainless steel rod spaced 0.5 cm apart at the bottom was divided into a light compartment and a dark compartment, and when mice placed in the light compartment entered the dark compartment, an electrical shock (0.1 mA/10 g body weight) was delivered through the stainless steel rods. The above procedure was repeated after 24 hours, and the time for which the mice stayed at the light compartment was measured and used as an index of memorizing the training of the previous day. Passive avoidance test was performed according to the method of Christensen et al. (Cholinergic ‘Blockade’ as a model of the cognitive deficits in Alzheimer's disease, Brain 115: 1681–1699, 1992). Specifically, scopolamine was dissolved in physiological saline to 1.5 mg/kg solution, and the solution was subcutaneously injected to mice 30 minutes before the training to induce amnesia. The Angelica gigas extract was intraperitoneally injected to the mice 1 hour before the scopolamine administration, and observed for its effect on the scopolamine-induced amnesia.
Passive avoidance test was performed according to the method of the above Experiment 1(2) to measure effects of pyranocoumarin derivatives of the present invention. Velnacrine (AChE inhibitor) was used as a positive control.

[3] = read-out: IC50 of AChE inhibition
[4] = Table 4, 1 mg/kg + scopolamine 1.5 mg/kg, Mean ± S.D.
[5] = Table 4, 5 mg/kg + scopolamine 1.5 mg/kg, Mean ± S.D.

T1 sequence (O42275 24-633): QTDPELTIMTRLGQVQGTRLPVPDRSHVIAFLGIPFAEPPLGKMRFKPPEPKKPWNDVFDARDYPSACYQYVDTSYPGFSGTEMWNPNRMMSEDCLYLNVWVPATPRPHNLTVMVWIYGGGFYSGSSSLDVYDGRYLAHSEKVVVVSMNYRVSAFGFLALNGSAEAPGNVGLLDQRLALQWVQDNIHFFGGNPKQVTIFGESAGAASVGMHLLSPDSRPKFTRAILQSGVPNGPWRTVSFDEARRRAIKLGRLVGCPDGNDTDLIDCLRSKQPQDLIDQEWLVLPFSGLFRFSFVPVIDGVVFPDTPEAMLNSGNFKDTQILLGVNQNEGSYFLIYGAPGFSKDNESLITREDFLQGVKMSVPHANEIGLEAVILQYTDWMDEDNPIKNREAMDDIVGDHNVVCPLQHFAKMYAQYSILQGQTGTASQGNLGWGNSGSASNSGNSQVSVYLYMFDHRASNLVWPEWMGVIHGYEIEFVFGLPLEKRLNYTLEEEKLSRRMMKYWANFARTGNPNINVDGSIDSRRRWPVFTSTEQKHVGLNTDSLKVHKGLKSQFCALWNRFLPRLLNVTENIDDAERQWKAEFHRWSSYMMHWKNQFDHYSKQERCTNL

SMILES | IC50 [1, 3] | Step-through latency [2, 4] | Step-through latency [2, 5] | cognition-enhancing activity in passive avoidance test, in words [2] | AChE inhibitory activity, comparison in words [1] | further results
CC1(C)Oc2cc3oc(=O)ccc3cc2C[C@@H]1O [Compound 2, decursinol, reference compound] | 28 µM | 52.1 ± 8.8 s | 54.4 ± 10.6 s | did not show such activity | – | Step-through latency ([2]; Table 4, 10 mg/kg + scopolamine 1.5 mg/kg, Mean ± S.D.): 43.2 ± 7.7 s
COc1ccc(/C=C/C(=O)OC2Cc3cc4ccc(=O)oc4cc3OC2(C)C)cc1 (stereo not drawn) [Compound 3] | 51 µM | – | – | excellent cognition-enhancing activity | better AChE inhibitory activity than decursinol | Step-through latency ([2]; Table 5, 1 mg/kg + scopolamine 1.5 mg/kg, Mean ± S.D.): 42.0 ± 17.9 s; Step-through latency ([2]; Table 5, 2 mg/kg + scopolamine 1.5 mg/kg, Mean ± S.D.): 86.0 ± 18.2 s; Step-through latency ([2]; Table 5, 5 mg/kg + scopolamine 1.5 mg/kg, Mean ± S.D.): 171.2 ± 18.7 s
CN1[C@@H]2C[C@@H](OC(=O)[C@H](CO)c3ccccc3)C[C@H]1[C@@H]1O[C@@H]12 [Scopolamine, scopolamine, reference compound] | – | – | – | – | – | Step-through latency ([2]; Table 2, scopolamine alone 1.5 mg/kg s.c. (amnesia induction), saline 158.8 ± 27.6): 29.7 ± 3.1 s; Step-through latency ([2]; Table 4, scopolamine alone 1.5 mg/kg s.c. (amnesia induction), saline 172.0 ± 16.0): 29.7 ± 2.8 s; Step-through latency ([2]; Table 5, scopolamine alone 1.5 mg/kg s.c. (amnesia induction), saline 179.7 ± 0.6): 28.4 ± 10.1 s
CC(C)=CC(=O)O[C@H]1Cc2cc3ccc(=O)oc3cc2OC1(C)C [Compound 1, decursin] | – | 108.6 ± 15.0 s | 96.5 ± 18.2 s | excellent cognition-enhancing activity | better AChE inhibitory activity than decursinol | IC50 [1]: 480 µM; Step-through latency ([2]; Table 4, 0.5 mg/kg + scopolamine 1.5 mg/kg, Mean ± S.D.): 32.1 ± 13.4 s
Nc1c2c(nc3ccccc13)CCCC2O (stereo not drawn) [velnacrine, Velnacrine, reference compound] | – | 73.4 ± 6.4 s | – | – | – | –
